Results on nine compounds are retold here after patent US6632921B1, “Seryl-lysyl-based peptide and peptidomimetic inhibitors of N-myristoyl transferase as anti-infective agents” (G. D Searle & Co, priority 1995, dated 2003).

One experiment has as its target T1, Candida albicans NMT (Candida albicans, UniProt P30418).
T1 construct: made in house; host or cells: E. coli
T1 sequence (P30418 1-451): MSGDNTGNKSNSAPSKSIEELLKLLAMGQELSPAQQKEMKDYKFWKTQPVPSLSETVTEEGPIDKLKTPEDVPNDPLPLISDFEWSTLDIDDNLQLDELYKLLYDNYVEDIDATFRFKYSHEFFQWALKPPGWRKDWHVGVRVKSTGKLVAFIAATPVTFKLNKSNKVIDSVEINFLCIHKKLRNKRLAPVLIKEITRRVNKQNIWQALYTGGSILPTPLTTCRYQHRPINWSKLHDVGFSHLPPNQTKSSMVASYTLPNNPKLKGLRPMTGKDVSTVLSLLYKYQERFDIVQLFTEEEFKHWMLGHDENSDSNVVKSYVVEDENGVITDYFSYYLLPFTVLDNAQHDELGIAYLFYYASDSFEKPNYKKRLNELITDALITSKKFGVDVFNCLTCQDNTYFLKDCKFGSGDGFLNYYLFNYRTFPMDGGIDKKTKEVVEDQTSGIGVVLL
Briefly: NMT enzyme inhibition assay (radiochemical HPLC end-point), Candida NMT. It counts as biochemical. The conditions noted are these: for IC50: Table V, read-out: IC50 caNMT. On the procedure:
Recombinant Candida albicans and human NMTs were expressed and purified from E. coli using previously described protocols. [D. A. Towler et al, Proc. Natl. Acad. Sci. USA, 84, 2707-2712 (1987); R. C. Weigand et al, J. Biol. Chem., 267, 8591-8598 (1992); R. J. Duronio et al, Proc. Natl. Acad. Sci. USA, 89, 4129-4133 (1992)] The ability of compounds to inhibit Candida NMT enzymatic activity was assessed using a radiochemical HPLC end-point assay as described previously for Saccharomyces cerevisiae and human NMTs. [D. Towler et al, Proc. Natl. Acad. Sci. USA, 83, 2812-2816 (1986); W. J. Rocque et al, J. Biol. Chem., 268, 9964-9971 (1991)] The donor substrate [^3H]myristoyl-coenzyme A was enzymatically synthesized from [^3H]myristic acid (50 Ci/mmol, Amersham, Arlington Heights, Ill.) and coenzyme A (Fluka Chemical Corp., Ronkonkoma, N.Y.), and purified as described previously. [W. J. Rocque et al, J. Biol. Chem., 268, 9964-9971 (1991)] The peptide acceptor substrate GNAASARR-NH2 was prepared by solid-phase peptide synthesis using the t-Boc amino acid methodology, followed by HF treatment and reverse-phase HPLC purification. Inhibitor stock solutions were prepared at 22 mM in DMSO; the final concentration of DMSO in each assay was 0.5% (v/v). Inhibition assays were carried out by combining variable amounts of inhibitor or buffer with […] of [^3H]myristoyl-coenzyme A (1 μCi, 9.09 Ci/mmol) and 2.2 nmoles of GNAASARR-NH2 in a total volume of 60 μL of 0.2 M N-[2-hydroxy-ethyl]piperazine-N′-[2-ethanesulfonic acid], pH 7.4, 2 mM DL-dithiothreitol, 0.2 mM ethylene glycol-bis-(β-aminoethyl ether) N,N,N′,N′-tetraacetic acid, and initiating the reaction by the addition of 50 μL of a Candida NMT solution (7-12 ng/50 μL). Assays with human NMT were identical except that they used 60-75 ng/50 μL of enzyme solution and 0.22 nmoles of GNAASARR-NH2. The reaction was quenched after 10 minutes at 24° C. by the addition of ice-cold MeOH, and the reaction products were separated and measured using C4 reverse-phase HPLC (Vydac 214TP10415; Separations Group, Hesperia, Calif.) and in-line scintillation counting using a Radiomatic A250 (Packard Instruments, Downers Grove, Ill.) and Ecolite(+) (ICN Biomedical, Costa Mesa, Calif.) as the scintillant. Selectivity was determined by calculating the ratio of the IC50 against human NMT to the IC50 against C. albicans NMT.

Experiment [1] deals with Candida albicans, strain B311. As to the kind of experiment: Antifungal susceptibility testing, microdilution broth, pH 5.4/30° C./YNB. It counts as cell-based. On the procedure: Antifungal Screens were set up initially against Candida albicans, strain B311, and Cryotococcus neoformans, strain L210425. Both pathogens, (originally from the stock culture collection, Medical mycology research center, Washington university-Barnes hospital), were obtained from Dr.Kobayashi, Prof.of infectious diseases, Washington University, St.Louis, Mo.
All cultures are maintained at 30° C. on Sabouraud's dextrose agar slants and subcultured at monthly intervals to fresh medium. All inocula for susceptibility testing are prepared in yeast nitogen base(YNB, Difco) broth.
A loopful of growth from Sabouraud dextrose agar slant is inoculated into 4 ml of YNB broth media and incubated at 30° C. overnight (18-24 hrs) with constant agitation (Gyratory Shaker, New Brunswick Scientific). Prior to setting up susceptibility testing, the organisms are counted in a hemocytometer, and diluted as needed into assay media.
1) (Assay at DH 5.4/30° C. Incubation/YNB Media).
Antifungal assays were carried out initially by a modification of the method published by Jones, et. al; (1), and communicated to Searle by Dr. Kobayashi, Washington University. [R. N. Jones et al, Manual of Clinical Microbiology, 4th ed., (1985)]
The antifungal susceptibility testing consists of a microdilution broth procedure performed in 96 well microtiter plates (Costar, cat#3799). Briefly, test compounds from a 20 mM stock solution in DMSO are diluted into sterile, deionized water (final DMSO concentration not exceeding 1%), to yield 2× the desired concentration (100 uM, 10 uM and 1 uM for an initial screen, or a selected concentration range in serial 2 fold dilutions for EC50 determination). One hundred microliters (100 ul) of each concentration is dispensed into triplicate wells of a 96 well microtiter plate. Appropriate dilutions of a suspension of C.albicans (1×10^6 cells/ml) in 2× YNB is distributed into each of the wells, including growth control wells containing no test compound as well as control wells with 0.5% DMSO. Amphotericin B at 0.05, 1 and 5 ug/ml is included in each assay plate as a positive control. The plates are incubated at 30° C. and cell growth is scored by reading the absorbance at 590 nm on an Elisa plate reader(Dynatech, MR.5000).
In general terms: In broth dilution the organism is exposed to a series of concentrations in liquid medium.

[2] abbreviates: B311, 24 hours, Table V (values agree with pH 5.4 assay), read-out: caEC50 24 hours.
Where [3] appears, read: read-out: % inhibition of caNMT.
[4] abbreviates: B311, 24 h, pH 5.4, read-out: caEC50 24 hours.

Where two headings read alike, the source gives them in different places. Non-standard residues stand in square brackets, D forms with d. Residues, ends and D or L forms follow the SMILES beside them. Cha = N[C@@H](CC1CCCCC1)C(=O)O; Aun = NCCCCCCCCCCC(=O)O Some results are limits rather than exact numbers.

A word on the IC50: it is the concentration at which inhibition is half-maximal. Regarding `Cc1nccn1CCCCc1ccc(CC(=O)N[C@@H](CO)C(=O)N[C@@H](CCCCN)C(=O)NC(CC(=O)O)C2CCCCC2)cc1` (mixture of isomers) [Example 9, Lysinamide, N-[1-Cyclohexyl-2-carboxyethyl]-N^2-[N-[[4-[4-(2-methyl-1H-imidazol-1-yl)butyl]phenyl]acetyl]-L-seryl]-, ±, bis-trifluoroacetate], the IC50 at Candida albicans NMT was determined as 6 µM. In addition, in experiment [1] (setting [2]), the EC50 is above 100 µM.

One may read the inhibition as the relative decrease from the control value, in per cent. Regarding `Cc1nccn1CCCCc1ccc(CC(=O)N[C@@H](CO)C(=O)N[C@@H](CCCCN)C(=O)NC(CC(=O)O)C2CCCCCCC2)cc1` (mixture of isomers) [Example 10, Lysinamide, N-[1-Cyclooctyl-2-carboxyethyl]-N^2-[N-[[4-[4-(2-methyl-1H-imidazol-1-yl)butyl]phenyl]acetyl]-L-seryl]-, ±, bis-trifluoroacetate], the inhibition at 10 µM at Candida albicans NMT (@ 10 μM, read-out: % inhibition of caNMT) was found to be 40%. Further, the EC50 in experiment [1] (setting [2]) is above 100 µM.

In the case of `NCCCCCCCCCCC(=O)N[C@@H](CO)C(=O)N[C@@H](CCCCN)C(=O)N[C@@H](CC1CCCCC1)C(=O)O` [Example 3, L-Alanine, 3-cyclohexyl-N-[[(11-amino-undecanoyl)-L-seryl]-L-lysyl]-, bis-trifluoroacetate] (H-[Aun]SK[Cha]-OH), the inhibition at 11 µM on Candida albicans NMT (setting [3]) amounted to 80%. Further, in experiment [1] (setting [4]), the EC50 was found to be 33 µM.

For `CC(C)C[C@H](NC(=O)[C@H](CCCCN)NC(=O)[C@H](CO)NC(=O)CCCCCCCCCCN)C(=O)O` [Example 4, L-leucine, N-[[(11-amino-undecanoyl)-L-seryl]-L-lysyl]-, bis-trifluoroacetate] (H-[Aun]SKL-OH), on Candida albicans NMT, the IC50 stood at 6.7 µM. The EC50 in experiment [1] (setting [4]) was 63 µM.

Take `Cc1nccn1CCCCc1ccc(CC(=O)N[C@@H](CO)C(=O)N[C@@H](CCCCN)C(=O)N[C@@H](C)C(=O)O)cc1` [Example 5, L-alanine, N-[N^2-[N-[[4-[4-(2-methyl-1H-imidazol-1-yl)butyl]phenyl]acetyl]-L-seryl]-L-lysyl]-, bis-trifluoroacetate]: the inhibition at 10 µM on Candida albicans NMT (setting [3]) is 27%. Further, the EC50 in experiment [1] (setting [4]) was determined as 68 µM.

Consider `Cc1nccn1CCCCc1ccc(CC(=O)N[C@@H](CO)C(=O)N[C@@H](CCCCN)C(=O)N[C@@H](Cc2ccccc2)C(=O)O)cc1` [Example 6, L-Alanine, 3-phenyl-N-[N^2-[N-[[4-[4-(2-methyl-1H-imidazol-1-yl)butyl]phenyl]acetyl]-L-seryl]-L-lysyl]-, bis-trifluoroacetate], for which the inhibition at 10 µM at Candida albicans NMT (setting [3]) was determined as 36%. Further, in experiment [1] (setting [4]), the EC50 was found to be 80 µM.

On to `CC[C@H](C)[C@H](NC(=O)[C@H](CCCCN)NC(=O)[C@H](CO)NC(=O)Cc1ccc(CCCCn2ccnc2C)cc1)C(=O)O` [Example 7, L-iso-leucine, N-[N^2-[N-[[4-[4-(2-methyl-1H-imidazol-1-yl)butyl]phenyl]acetyl]-L-seryl]-L-lysyl]-, bis-trifluoroacetate], for which the IC50 on Candida albicans NMT was determined as 100 µM. The EC50 in experiment [1] (setting [2]) was determined as 97 µM.

Regarding `Cc1nccn1CCCCc1ccc(CC(=O)N[C@@H](CO)C(=O)N[C@@H](CCCCN)C(=O)N[C@@H](CC(C)C)C(=O)O)cc1` [Example 8, L-Leucine, N-[N^2-[N-[[4-[4-(2-Methyl-1H-imidazol-1-yl)butyl]phenyl]acetyl]-L-seryl]-L-lysyl]-, bis-trifluoroacetate], the inhibition at 10 µM at Candida albicans NMT (setting [3]) is 78%. Moreover, in experiment [1] (setting [4]), the EC50 was above 100 µM.

Consider `Cc1nccn1CCCCc1ccc(CC(=O)N[C@@H](CO)C(=O)N[C@@H](CCCCN)C(=O)N[C@H](CC2CCCCC2)C(=O)O)cc1` [Example 11, D-alanine, 3-cyclohexyl-N-[N^2-[N-[[4-[4-(2-methyl-1H-imidazol-1-yl)butyl]phenyl]acetyl]-L-seryl]-L-lysyl]-, bis-trifluoroacetate], for which, at Candida albicans NMT, the IC50 worked out at 18 µM. In experiment [1] (setting [4]), the EC50 was above 100 µM.
